{"source": "patent US20130150399A1", "about": "“INHIBITORS OF THE UNFOLDED PROTEIN RESPONSE AND METHODS FOR THEIR USE” (The Board of Trustees of the Leland Stanford Junior …, priority 2006, published 2013)", "key": {"[1]": {"test_system": "phospho-IRE1α", "test": "Western immunoblot of phospho-IRE1α (IRE1α kinase), HT1080 cells", "assay_type": "cell-based, human", "conditions": "preincubated 16 hours, 2.5 μM; Tm 5 μg/ml", "experimental": "Cells (2×10^6) were cultured in 10-cm dishes, collected using a cell scraper at 4° C., and lysed by addition of 150 μl cell lysis buffer [50 mM Tris pH 7.4, 150 mM NaCl, 10% glycerol, 0.5% Triton X-100. 0.5% NP-40, 2 mM Na3VO4, 20 mM beta-glycerophosphate, 10 mM NaF, 1 mM DTT, 1 mM PMSF). Lysates were centrifuged for 5 min at 10,000×g, and proteins (˜40 μg) were resolved by SDS-PAGE followed by semi-dry transfer to nitrocellulose membranes. Membranes were blocked in TBS-5% milk supplemented with 0.1% Tween-20. The blots were then probed overnight with relevant antibodies, washed, and incubated for 2 hours with species-specific secondary antibodies conjugated to horseradish peroxidase. After washing in block solution, immunoreactive material was detected by enhanced chemiluminescence (SuperSignal West Dura Extended, Pierce, Inc., Rockville, Ill.).\nHT1080 cells were exposed to DMSO vehicle (lane 1), irestatin 9389 (2.5 μM; lane 2) for 16 hours or Tm (5 μg/ml; lane 3) for 8 hours. Following treatments, cells were harvested, lysed, and analyzed by immunoblotting using anti-Grp78 antibody (top) or anti-actin (bottom) as a loading control. […] Cell lysates were analyzed by Western immunoblotting using anti-IRE1α (bottom) or anti-phospho-IRE1α antibodies (top). […] Lysates were analyzed by Western blot using antisera specific for phospho-JNK1 (top) or total JNK1 (bottom). […]"}, "[2]": {"biological_target": "T1, His6-IRE1α-cyto (Homo sapiens, UniProt O75460)", "T1 construct": "purified the full cytosolic portion of IRE1α (His6-IRE1α-cyto) containing both kinase and endonuclease domains; His6; made in house", "T1 sequence (O75460 465-977 limits assumed)": "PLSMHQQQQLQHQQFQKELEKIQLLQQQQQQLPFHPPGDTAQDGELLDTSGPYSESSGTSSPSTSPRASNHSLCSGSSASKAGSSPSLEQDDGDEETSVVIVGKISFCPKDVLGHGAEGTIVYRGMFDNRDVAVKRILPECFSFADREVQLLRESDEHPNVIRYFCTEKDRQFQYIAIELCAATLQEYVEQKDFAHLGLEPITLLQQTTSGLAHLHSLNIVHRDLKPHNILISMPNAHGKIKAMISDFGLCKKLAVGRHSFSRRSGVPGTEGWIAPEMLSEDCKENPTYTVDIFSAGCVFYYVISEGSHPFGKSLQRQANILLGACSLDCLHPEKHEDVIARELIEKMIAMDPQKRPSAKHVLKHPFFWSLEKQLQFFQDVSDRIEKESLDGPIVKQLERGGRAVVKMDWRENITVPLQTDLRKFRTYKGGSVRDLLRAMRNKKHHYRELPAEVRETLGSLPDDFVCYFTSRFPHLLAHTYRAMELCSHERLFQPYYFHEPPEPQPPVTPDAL", "test": "IRE1α endonuclease (in vitro ribonuclease) assay", "assay_type": "biochemical", "conditions": "2.5 μM", "experimental": "The in vitro ribonuclease assays were carried out using purified IRE1α-cyto essentially as described. Gonzalez and Walter, Methods Mol Biol 160: 25-36 (2001); Gonzalez et al., Embo J 18: 3119-3132 (1999). For each reaction, 5 μg purified IRE1α-cyto was incubated with 300 ng of fluorescein-labeled RNA stem-loop substrate at 37° C. in a total volume of 300 μl. Aliquots (50 μl) were withdrawn at the indicated times and mixed with an equal volume of stop solution. Id. Reactions were analyzed by SDS-PAGE using 10-20% acrylamide gradient gels. The sequence for the hXBP-1 3′ RNA stem-loop substrate is as follows: • 5′[…] 3′ (SEQ ID NO: 8). […]\nHT1080 cells were exposed to DMSO vehicle (lane 1), irestatin 9389 (2.5 μM; lane 2) for 16 hours or Tm (5 μg/ml; lane 3) for 8 hours. Following treatments, cells were harvested, lysed, and analyzed by immunoblotting using anti-Grp78 antibody (top) or anti-actin (bottom) as a loading control. […] Cell lysates were analyzed by Western immunoblotting using anti-IRE1α (bottom) or anti-phospho-IRE1α antibodies (top). […] Lysates were analyzed by Western blot using antisera specific for phospho-JNK1 (top) or total JNK1 (bottom). […] F. Quantification of RNA cleavage kinetics. […] Samples were analyzed as in (E).\nNext we determined whether irestatin 9389 inhibited the endonuclease function of IRE1α. […]"}, "[3]": {"test_system": "PANC1 pancreatic adenocarcinoma cells", "test": "PANC1 tumor growth in vivo", "set-up": "species or system nude mice", "conditions": "60 mg/kg ip bolus every 48 hours, 5 doses", "experimental": "Dose: 60 mg/kg ip bolus injection every 48 hours. 5 total doses. 5-7 tumors per group. PANC1 pancreatic adenocarcinoma cell line.\nPANC1 pancreatic adenocarcinoma cells were implanted subcutaneously into nude mice. Mice were then given a bolus injection of one of the inventive irestatins (1401, 9337, 3611 or 9389) at a dose of 60 mg/kg every 48 hours for a total of 5 doses, with 5-7 tumors being treated per group."}}}
{"smiles": "Cc1csc(NC(=O)CSc2nc3c(c(C(F)(F)F)c2C#N)CCC3)n1", "note": "[Compound 9389]", "values": [{"measurement": "levels of phospho-IRE1α after addition of Tm", "setting": "[1]", "result": "rapid increase in levels of phospho-IRE1α"}, {"measurement": "cleavage of XBP-1 target RNA by IRE1α endonuclease", "setting": "[2]", "result": "strongly inhibited cleavage"}, {"measurement": "tumor growth", "setting": "[3]", "result": "significant tumor growth was observed in untreated mice, but not in mice treated with the irestatins"}]}
